Laboratory results taken from US11613525B2 (CTXT PTY LIMITED, priority 2018, dated 2023).
pEC50, pKd: −log10 of the molar value.

Key:
human STING (HAQ) [1] = target: T1, human STING (HAQ) (Homo sapiens, UniProt Q86WV6, G230A/H232R/R293Q); assay: biochemical; type: binding; conditions: for DSF huSTING (HAQ) ΔTm (° C.): 1 μM protein, compound at 100 μM
Procedure: (§1) DSF monitors thermal unfolding of protein in the presence of a fluorescent dye and is typically performed using a real-time PCR instrument. The temperature at which a protein unfolds is measured by an increase in the fluorescence of a dye with affinity for hydrophobic parts of the protein that are gradually exposed during unfolding. The fluorescence of the dye is quenched in aqueous environments, but when the dye associates with hydrophobic sites on the unfolded protein, its fluorescence increases. The fluorescence intensity is plotted as a function of the temperature, generating a sigmoidal curve that can be described by a two-state transition. The inflection point of the transition curve (Tm) is calculated using simple equations such as that of Boltzman.
(§2) Sealed plates were then placed into a Bio-Rad CFX96/C1000 thermocycler and FRET scanning mode (λ^excitation of 490 nm and reads at λ^emission of 570 nm) was used to measure fluorescence intensity. […] The melting point (Tm) obtained for STING protein alone was subtracted from Tm obtained for protein incubated with ligand to generate ΔTm values listed in the table below.
(§3) These additional compounds were tested as described above, however the protein concentration was 2 μM.

huSTING (WT) [2] = target: T2, huSTING (WT) (Homo sapiens (Human), UniProt Q86WV6, H232R); assay: Differential scanning fluorimetry (DSF), huSTING (WT); type: binding; conditions: read-out: DSF huSTING (WT) ΔTm (° C.)
Procedure: as §1, §2, §3
Target sequence in this assay (Q86WV6 other isoform, or with tags, fused parts or gaps, stated change not applied): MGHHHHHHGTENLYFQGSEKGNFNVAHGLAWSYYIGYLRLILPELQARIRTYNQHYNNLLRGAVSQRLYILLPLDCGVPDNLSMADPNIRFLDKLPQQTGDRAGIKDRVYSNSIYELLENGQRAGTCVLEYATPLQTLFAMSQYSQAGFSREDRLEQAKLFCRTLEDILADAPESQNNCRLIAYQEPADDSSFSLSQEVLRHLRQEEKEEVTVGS

huSTING (HAQ) = huSTING (HAQ) (Homo sapiens (Human), UniProt Q86WV6, G230A/H232R/R293Q/R71H); assay: THP-1 reporter cell line assay, THP-1 STING Lucia ISG cells; type: cell-based; conditions: THP-1 STING Lucia ISG cells; 24 h; top concentration 50 μM; read-out: Cellular EC50 huSTING (HAQ)
huSTING (WT) [3] = target: T2, huSTING (WT); assay: THP-1 reporter cell line assay, THP-1-Dual KI-hSTING-R232 cells; type: cell-based; conditions: read-out: Cellular EC50 huSTING (WT)
Target sequence in this assay (Q86WV6 whole entry H232R): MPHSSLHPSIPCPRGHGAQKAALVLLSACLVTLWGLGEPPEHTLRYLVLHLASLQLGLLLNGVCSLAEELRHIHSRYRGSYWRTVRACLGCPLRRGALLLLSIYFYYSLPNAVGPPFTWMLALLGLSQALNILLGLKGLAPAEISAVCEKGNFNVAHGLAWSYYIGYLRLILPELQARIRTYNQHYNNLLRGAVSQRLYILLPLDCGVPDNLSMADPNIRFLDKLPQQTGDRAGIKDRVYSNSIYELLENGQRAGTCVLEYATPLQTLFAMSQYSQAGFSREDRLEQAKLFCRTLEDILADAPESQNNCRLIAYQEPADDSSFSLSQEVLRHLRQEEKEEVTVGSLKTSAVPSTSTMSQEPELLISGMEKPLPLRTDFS

human STING (HAQ) [4] = target: T1, human STING (HAQ); conditions: read-out: SPR (HAQ) KD; 25° C.

T1 sequence (Q86WV6 whole entry G230A/H232R/R293Q, looked up): as the sequence (Q86WV6 whole entry H232R) above, with G230A, R293Q counted along it
huSTING (HAQ), sequence (Q86WV6 whole entry R71H/G230A/H232R/R293Q): as the sequence (Q86WV6 whole entry H232R) above, with R71H, G230A, R293Q counted along it

Row | Compound | DSF huSTING (HAQ) ΔTm (° C.) (human STING (HAQ) [1]) | ΔTm at 100 µM (huSTING (WT) [2]) | pEC50 (huSTING (HAQ)) | pEC50 (huSTING (WT) [3]) | pKd (human STING (HAQ) [4]) | ΔTm at 100 µM (human STING (HAQ) [1]; read-out: DSF huSTING (HAQ) ΔTm (° C.))
1 | NC(=O)c1ccc(OCc2c(C(=O)O)sc3cccc(F)c23)cc1 [Example 1, 3-((4-Carbamoylphenoxy)methyl)-4-fluorobenzo[b]thiophene-2-carboxylic acid] | 7.78 °C | 0.99 °C | < 4.30 | < 4.30 | 4.49 | –
2 | NC(=O)c1ccc(OCc2c(C(=O)OCc3ccccc3)sc3cccc(F)c23)cc1 [Example 3, Benzyl 3-((4-carbamoylphenoxy)methyl)-4-fluorobenzo[b]thiophene-2-carboxylate] | −0.47 °C | – | 5.53 | < 4.30 | 2.46 | –
3 | NC(=O)c1ccc(OCc2c(C(=O)O)sc3ccccc23)cc1 [Example 6, 3-((4-Carbamoylphenoxy)methyl)benzo[b]thiophene-2-carboxylic acid] | 3.33 °C | -1.15 °C | < 4.30 | < 4.30 | 4.05 | –
4 | NC(=O)c1ccc(OCc2c(C(=O)O)sc3cc(Cl)ccc23)cc1 [Example 10, 3-((4-carbamoylphenoxy)methyl)-6-chlorobenzo[b]thiophene-2-carboxylic acid] | 1.7 °C | -2.34 °C | < 4.30 | < 4.30 | 3.73 | –
5 | NC(=O)c1ccc(OCc2c(C(=O)O)sc3c(Cl)cccc23)cc1 [Example 12, 3-((4-Carbamoylphenoxy)methyl)-7-chlorobenzo[b]thiophene-2-carboxylic acid] | 9 °C | 3.29 °C | < 4.30 | < 4.30 | 5.23 | –
6 | NC(=O)c1ccc(OCc2c(C(=O)O)sc3ccc(Cl)cc23)cc1 [Example 14, 3-((4-Carbamoylphenoxy)methyl)-5-chlorobenzo[b]thiophene-2-carboxylic acid] | 0.09 °C | -4.26 °C | < 4.30 | < 4.30 | 3.92 | –
7 | NC(=O)c1ccc(OCc2c(C(=O)O)sc3ccc(F)c(F)c23)cc1 [Example 16, 3-((4-Carbamoylphenoxy)methyl)-4,5-difluorobenzo[b]thiophene-2-carboxylic acid] | 10.12 °C | 3.49 °C | < 4.30 | < 4.30 | 5.66 | –
8 | Cc1ccc2sc(C(=O)O)c(COc3ccc(C(N)=O)cc3)c2c1Cl [Example 18, 3-((4-Carbamoylphenoxy)methyl)-4-chloro-5-methylbenzo[b]thiophene-2-carboxylic acid] | 6.29 °C | -0.6 °C | < 4.30 | < 4.30 | 4.80 | –
9 | NC(=O)c1ccc(OCc2c(C(=O)O)sc3cc(Cl)cc(F)c23)cc1 [Example 20, 3-((4-Carbamoylphenoxy)methyl)-6-chloro-4-fluorobenzo[b]thiophene-2-carboxylic acid] | 5.83 °C | -2.76 °C | < 4.30 | < 4.30 | 4.47 | –
10 | NC(=O)c1ccc(OCc2c(C(=O)O)sc3cccc(Br)c23)cc1 [Example 22, 4-Bromo-3-((4-carbamoylphenoxy)methyl)benzo[b]thiophene-2-carboxylic acid] | 17.08 °C | 7.61 °C | < 4.30 | 4.39 | 6.12 | –
11 | NC(=O)c1ccc(OCc2c(C(=O)O)sc3cccnc23)cc1 [Example 24, 3-((4-Carbamoylphenoxy)methyl)thieno[3,2-b]pyridine-2-carboxylic acid] | – | -0.35 °C | < 4.30 | < 4.30 | < 2.00 | 0.6 °C
12 | NC(=O)c1ccc(OCc2c(C(=O)O)sc3cccc(Cl)c23)cc1F [Example 26, 3-((4-Carbamoyl-3-fluorophenoxy)methyl)-4-chlorobenzo[b]thiophene-2-carboxylic acid] | 10.82 °C | 3.79 °C | < 4.30 | < 4.30 | 5.79 | –
